The values below come from patent US10730874B2 (Shire Human Genetic Therapies, Inc., priority 2018, dated 2020).

SMILES strings stand for the structures. pEC50: −log10 of the molar value.

human activated kallikrein enzyme (plasma kallikrein), sequence (P03952 391-638): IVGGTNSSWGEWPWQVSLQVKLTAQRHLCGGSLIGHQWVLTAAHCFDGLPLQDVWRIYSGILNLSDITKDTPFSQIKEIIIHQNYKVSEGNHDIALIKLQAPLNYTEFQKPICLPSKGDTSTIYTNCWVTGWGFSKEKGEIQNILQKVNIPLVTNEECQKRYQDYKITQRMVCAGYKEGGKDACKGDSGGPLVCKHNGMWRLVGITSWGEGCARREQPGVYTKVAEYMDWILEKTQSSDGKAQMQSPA
human activated kallikrein enzyme (plasma kallikrein), sequence (P03952 20-390 partner): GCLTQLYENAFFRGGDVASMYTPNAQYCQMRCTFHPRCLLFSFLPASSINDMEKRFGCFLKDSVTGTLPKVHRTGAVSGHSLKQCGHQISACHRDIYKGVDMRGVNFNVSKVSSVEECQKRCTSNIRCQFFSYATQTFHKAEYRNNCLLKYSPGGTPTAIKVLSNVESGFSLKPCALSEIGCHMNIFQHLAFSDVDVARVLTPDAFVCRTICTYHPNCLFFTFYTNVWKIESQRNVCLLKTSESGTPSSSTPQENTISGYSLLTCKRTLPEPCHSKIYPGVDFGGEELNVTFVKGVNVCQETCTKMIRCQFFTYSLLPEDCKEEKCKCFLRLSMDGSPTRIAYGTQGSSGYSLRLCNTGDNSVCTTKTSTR

The target of the assay is human activated kallikrein enzyme (plasma kallikrein) (Homo sapiens (Human), UniProt P03952). Nature of the assay: Inhibition of human activated plasma kallikrein, fluorogenic peptide substrate assay, 500 pM enzyme format. Conditions: 500 pM activated kallikrein enzyme, 300 uM Pro-Phe-Arg-7-amido-4-methylcoumarin substrate, 30 min preincubation, 10 min at RT; read-out: Primary Dose Response Assay: Average EC50. The assay is classed as biochemical. As for the experimental part:
Example compounds were evaluated for inhibition of the human activated kallikrein enzyme in two formats of an assay employing a fluorogenic peptide substrate. In one assay format, the concentrations of reagents were as follows: 20 mM Tris pH 7.5, 1 mM EDTA, 150 mM sodium chloride, 0.1% PEG-400, 0.1% Triton X-100, 500 pM activated kallikrein enzyme, 300 uM Pro-Phe-Arg-7-amido-4-methylcoumarin substrate. Prior to reaction initiation with substrate, enzyme and inhibitors were preincubated for 30 min at RT. After initiation with substrate, reactions were incubated for 10 min at RT and fluorescence emission at 460 nm from 380 nm excitation measured with a microplate reader. In another assay format, the concentrations of reagents were as follows: 20 mM Tris pH 7.5, 1 mM EDTA, 150 mM sodium chloride, 0.1% PEG-400, 0.1% Triton X-100, 5 pM activated kallikrein enzyme, 300 uM Pro-Phe-Arg-7-amido-4-methylcoumarin substrate. Prior to reaction initiation with substrate, enzyme and inhibitors were preincubated for 30 min at RT. After initiation with substrate, reactions were incubated for 18 h at RT and fluorescence emission at 460 nm from 380 nm excitation measured with a microplate reader.
On to `O=C(NCc1ncn2ccc(Br)cc12)c1cnn(Cc2cn3c(F)c(C4CC4)ccc3n2)c1` [Example I-60, N-((7-bromoimidazo[1,5-a]pyridin-1-yl)methyl)-1-((6-cyclopropyl-5-fluoroimidazo[1,2-a]pyridin-2-yl)methyl)-1H-pyrazole-4-carboxamide], for which the pEC50 is above 9.00.
The same measure for `O=C(NCc1ncn2ccc(Cl)cc12)c1cnn(Cc2cn3cc(C4CCC4)ccc3n2)c1` [Example I-61, N-((7-chloroimidazo[1,5-a]pyridin-1-yl)methyl)-1-((6-cyclobutylimidazo[1,2-a]pyridin-2-yl)methyl)-1H-pyrazole-4-carboxamide]: 8.00 to 9.00; for `O=C(NCc1ncn2ccc(Cl)cc12)c1cnn(Cc2cn3c(CO)cccc3n2)c1` [Example I-62, N-((7-chloroimidazo[1,5-a]pyridin-1-yl)methyl)-1-((5-(hydroxymethyl)imidazo[1,2-a]pyridin-2-yl)methyl)-1H-pyrazole-4-carboxamide]: 5.70 to 7.00; for `COc1cccc2nc(Cn3cc(C(=O)NCc4ncn5ccc(Cl)cc45)cn3)cn12` [Example I-63, N-((7-chloroimidazo[1,5-a]pyridin-1-yl)methyl)-1-((5-methoxyimidazo[1,2-a]pyridin-2-yl)methyl)-1H-pyrazole-4-carboxamide]: 7.00 to 8.00.
The same measure for `Cc1ccc2nc(Cn3cc(C(=O)NCc4ncn5ccc(Cl)cc45)cn3)cn2c1` [Example I-64, N-((7-chloroimidazo[1,5-a]pyridin-1-yl)methyl)-1-((6-methylimidazo[1,2-a]pyridin-2-yl)methyl)-1H-pyrazole-4-carboxamide]: 8.00 to 9.00; for `COC(=O)CCc1nn(Cc2cn3cc(C4CC4)ccc3n2)cc1C(=O)NCc1ncn2ccc(Cl)cc12` [Example I-65, methyl 3-(4-(((7-chloroimidazo[1,5-a]pyridin-1-yl)methyl)carbamoyl)-1-((6-cyclopropylimidazo[1,2-a]pyridin-2-yl)methyl)-1H-pyrazol-3-yl)propanoate]: above 9.00.
Then `C#Cc1ccn2cnc(CNC(=O)c3cnn(Cc4cn5cc(C6CC6)ccc5n4)c3)c2c1` [Example I-66, 1-((6-cyclopropylimidazo[1,2-a]pyridin-2-yl)methyl)-N-((7-ethynylimidazo[1,5-a]pyridin-1-yl)methyl)-1H-pyrazole-4-carboxamide], with above 9.00; and `CCc1ccn2cnc(CNC(=O)c3cnn(Cc4cn5cc(C6CC6)ccc5n4)c3)c2c1` [Example I-67, 1-((6-cyclopropylimidazo[1,2-a]pyridin-2-yl)methyl)-N-((7-ethylimidazo[1,5-a]pyridin-1-yl)methyl)-1H-pyrazole-4-carboxamide], with 7.00 to 8.00; and `O=C(NCc1ncn2ccc(Br)cc12)c1cnn(Cc2cn3nc(C4CC4)ccc3n2)c1` [Example I-68, N-((7-bromoimidazo[1,5-a]pyridin-1-yl)methyl)-1-((6-cyclopropylimidazo[1,2-b]pyridazin-2-yl)methyl)-1H-pyrazole-4-carboxamide], with above 9.00.
For the molecule `O=C(NCc1ncn2ccc(Cl)cc12)c1cnn(Cc2cn3ccccc3n2)c1` [Example I-69, N-((7-chloroimidazo[1,5-a]pyridin-1-yl)methyl)-1-(imidazo[1,2-a]pyridin-2-ylmethyl)-1H-pyrazole-4-carboxamide], the pEC50 was 5.70 to 7.00.
Then `O=C(NCc1ncn2ccc(Cl)cc12)c1nnc(Cc2cn3cc(C4CC4)ccc3n2)s1` [Example I-70, N-((7-chloroimidazo[1,5-a]pyridin-1-yl)methyl)-5-((6-cyclopropylimidazo[1,2-a]pyridin-2-yl)methyl)-1,3,4-thiadiazole-2-carboxamide], with 7.00 to 8.00; and `CCOC(=O)c1cc(C2CC2)cn2cc(Cn3cc(C(=O)NCc4ncn5ccc(Cl)cc45)cn3)nc12` [Example I-71, ethyl 2-((4-(((7-chloroimidazo[1,5-a]pyridin-1-yl)methyl)carbamoyl)-1H-pyrazol-1-yl)methyl)-6-cyclopropylimidazo[1,2-a]pyridine-8-carboxylate], with above 9.00; and `O=C(NCc1ncn2ccc(Cl)cc12)c1cnn(Cc2cn3cc(C4CC4)cc(C(=O)O)c3n2)c1` [Example I-72, 2-((4-(((7-chloroimidazo[1,5-a]pyridin-1-yl)methyl)carbamoyl)-1H-pyrazol-1-yl)methyl)-6-cyclopropylimidazo[1,2-a]pyridine-8-carboxylic acid], with 8.00 to 9.00.
Consider `O=C(O)CCc1nn(Cc2cn3cc(C4CC4)ccc3n2)cc1C(=O)NCc1ncn2ccc(Cl)cc12` [Example I-73, 3-(4-(((7-chloroimidazo[1,5-a]pyridin-1-yl)methyl)carbamoyl)-1-((6-cyclopropylimidazo[1,2-a]pyridin-2-yl)methyl)-1H-pyrazol-3-yl)propanoic acid], for which the pEC50 was above 9.00.
Then `CC(NC(=O)c1cnn(Cc2cn3cc(C4CC4)ccc3n2)c1)c1ncn2ccc(Br)cc12` (stereo not drawn) [Example I-74, N-(1-(7-bromoimidazo[1,5-a]pyridin-1-yl)ethyl)-1-((6-cyclopropylimidazo[1,2-a]pyridin-2-yl)methyl)-1H-pyrazole-4-carboxamide], with 8.00 to 9.00.
Then `O=C(NCc1ncn2ccc(Cl)cc12)c1cnn(Cc2cn3cc(C4CC4)cc(CO)c3n2)c1` [Example I-75, N-((7-chloroimidazo[1,5-a]pyridin-1-yl)methyl)-1-((6-cyclopropyl-8-(hydroxymethyl)imidazo[1,2-a]pyridin-2-yl)methyl)-1H-pyrazole-4-carboxamide], with above 9.00.
For the molecule `O=C(NCc1ncn2ccc(Br)cc12)c1cnn(Cc2cn3cc(C4CC4)cnc3n2)c1` [Example I-76, N-((7-bromoimidazo[1,5-a]pyridin-1-yl)methyl)-1-((6-cyclopropylimidazo[1,2-a]pyrimidin-2-yl)methyl)-1H-pyrazole-4-carboxamide], the negative logarithm of the EC50 (pEC50) is above 9.00.
Then `CNc1cccc2nc(Cn3cc(C(=O)NCc4ncn5ccc(Cl)cc45)cn3)cn12` [Example I-77, N-((7-chloroimidazo[1,5-a]pyridin-1-yl)methyl)-1-((5-(methylamino)imidazo[1,2-a]pyridin-2-yl)methyl)-1H-pyrazole-4-carboxamide], with 7.00 to 8.00.
Then `O=C(NCc1ncn2ccc(Cl)cc12)c1cn(Cc2cn3cc(C4CC4)ccc3n2)nc1C1CC1` [Example I-78, N-((7-chloroimidazo[1,5-a]pyridin-1-yl)methyl)-3-cyclopropyl-1-((6-cyclopropylimidazo[1,2-a]pyridin-2-yl)methyl)-1H-pyrazole-4-carboxamide], with above 9.00.
Then `C#Cc1c(C2CC2)ccc2nc(Cn3cc(C(=O)NCc4ncn5ccc(Cl)cc45)cn3)cn12` [Example I-79, N-((7-chloroimidazo[1,5-a]pyridin-1-yl)methyl)-1-((6-cyclopropyl-5-ethynylimidazo[1,2-a]pyridin-2-yl)methyl)-1H-pyrazole-4-carboxamide], with 8.00 to 9.00.
As to `O=C(NCc1ncn2ccc(Cl)cc12)c1cn(Cc2cn3cc(C4CC4)ccc3n2)nn1` [Example I-80, N-((7-chloroimidazo[1,5-a]pyridin-1-yl)methyl)-1-((6-cyclopropylimidazo[1,2-a]pyridin-2-yl)methyl)-1H-1,2,3-triazole-4-carboxamide], the pEC50 is above 9.00.
